Each structure is given as a SMILES string.

In the experiment the test system is primary CLL samples (CD19+ and CD5+ cells). The experiment in a line: High-throughput dynamic BH3 profiling (HT-DBP): drug-induced apoptotic priming (delta priming), cytochrome c release after BH3 peptide. As to conditions: for drug-induced apoptotic priming: across CLL subtypes, 65 primary CLL samples, 20 hours drug. It is filed as cell-based, human. As to the method: By “delta priming” is meant the difference in priming of a cell for apoptosis measured in the presence of an agent for treating chronic lymphocytic leukemia relative to priming of the cell in the presence of an inert carrier. In embodiments, the inert carrier is DMSO.
Dynamic BH3 Profiling Dynamic BH3 profiling (DBP) is a drug screening assay that measures the relative priming of cells in a biological sample for cell death by apoptosis in the presence of a specific compound and/or a pro-apoptotic peptide. By “Dynamic BH3 profiling” is meant measuring drug-induced changes in mitochondrial apoptotic priming. Mitochondrial apoptotic priming is a measure of how close to the apoptotic threshold a cell is. A highly primed cell has relatively less anti-apoptotic binding site availability and is closer to the apoptotic threshold than a poorly primed cell, which has more anti-apoptotic availability to buffer an apoptotic assault and is further from the apoptotic threshold. BH3 peptides derived from the BH3 domain of pro-apoptotic BH3-only proteins provoke a response from viable mitochondria. Cytochrome c released from the mitochondria after a short incubation with BH3 peptide is used as a surrogate for priming. In general, the more sensitive a mitochondrion is to a BH3 peptide, the more primed it is. A drug treatment that enhances priming will cause mitochondria to undergo MOMP more easily when incubated with a fixed concentration of a promiscuously binding BH3 peptide, such as BIM BH3 peptide, compared to control-treated cells. See, for example, Potter, D. S. & Letai, A. To prime, or not to prime: that is the question. Cold Spring Harb. Symp. Quant. Biol. 81, 131-140 (2016); Montero, J. et al. Drug-induced death signaling strategy rapidly predicts cancer response to chemotherapy. Cell 160, 977-989 (2015); Daniels, V. W. et al. Metabolic perturbations sensitize triple-negative breast cancers to apoptosis induced by BH3 mimetics. Sci.
Dynamic BH3 profiling and peptides for use therein are described, for example, in Certo, et al., “Mitochondria primed by death signals determine cellular addiction to antiapoptotic BCL-2 family members,” Cancer Cell, 9:351-365 (2006); and in Foight, et al. “Designed BH3 Peptides with High Affinity and Specificity for Targeting Mcl-1 in Cells,” ACS Chemical Biology, 9:1962-1968 (2014), the disclosures of which are incorporated herein by reference in their entireties for all purposes. The DBP assay enables one to compare the response of a patient tumor sample to a specific drug relative to other drugs and relative to an inert control (e.g., DMSO).
To address the challenge of selecting a proper treatment for a chronic lymphocytic leukemia, experiments were undertaken to optimize high-throughput dynamic BH3 profiling (HT-DBP) for evaluation of the drug sensitivities of CLL samples (FIGS. 1, 13, 5A, 5B, 6A, 6B, and 7A-7C).

Where [1] appears, read: peptide BAD 0.3 uM, feature EC-i.
[2] abbreviates: peptide PUMA 1 uM, feature gain_7q22.1.
Where [3] appears, read: peptide PUMA 1 uM, feature loss_14q32.12.
[4] abbreviates: peptide BIM 0.01 uM, feature EC-m2.
The mark [5] stands for this setting: peptide BIM 0.01 uM, feature loss_17q23.1.
Where [6] appears, read: peptide BAD 0.3 uM, feature IGLV321_R110.
Where [7] appears, read: peptide BAD 0.3 uM, feature NOTCH1.
Where [8] appears, read: peptide BAD 0.3 uM, feature RPS15.
The mark [9] stands for this setting: peptide BAD 0.3 uM, feature loss_6q.
[10] abbreviates: peptide BIM 0.01 uM, feature IGLV321_R110.
Setting [11] is: peptide BIM 0.01 uM, feature RPS15.
[12] abbreviates: peptide BIM 0.01 uM, feature loss_6q.
Where [13] appears, read: peptide MS1 2.5 uM, feature IGLV321_R110.
The mark [14] stands for this setting: peptide MS1 2.5 uM, feature NOTCH1.
The mark [15] stands for this setting: peptide MS1 2.5 uM, feature RPS15.
The mark [16] stands for this setting: peptide MS1 2.5 uM, feature loss_6q.
[17] abbreviates: peptide PUMA 1 uM, feature IGLV321_R110.
Setting [18] is: peptide PUMA 1 uM, feature NOTCH1.
The mark [19] stands for this setting: peptide PUMA 1 uM, feature RPS15.
[20] abbreviates: peptide PUMA 1 uM, feature loss_6q.
The mark [21] stands for this setting: peptide BIM 0.01 uM, feature NOTCH1.
Setting [22] is: peptide PUMA 1 uM, feature loss_17q23.1.
Setting [23] is: peptide BAD 0.3 uM, feature loss_17p13.1.
Setting [24] is: peptide BAD 0.3 uM, feature loss_17q23.1.

As to `Cn1c(CCCC(=O)O)nc2cc(N(CCCl)CCCl)ccc21` [Bendamustine], the direction result reads like this: (Feature loss_5p15.33) “Sensitive”; (Feature loss_7p22.2) “Sensitive”; (Feature loss_12p13.31a) “Sensitive”; (Feature loss_14q32.12) “Sensitive”; under setting [1], “Sensitive”; (peptide BAD 0.3 uM, feature loss_1q42.13) “Sensitive”. Moreover, the direction entry is recorded as “Sensitive” (peptide BAD 0.3 uM, feature loss_5p15.33); “Sensitive” (peptide BAD 0.3 uM, feature loss_7p22.2); “Sensitive” (peptide BAD 0.3 uM, feature loss_12p13.31a); “Sensitive” (peptide BAD 0.3 uM, feature loss_14q32.12); “Sensitive” (peptide BAD 0.3 uM, feature loss_16p11.2); “Sensitive” (peptide MS1 2.5 uM, feature BIRC3). Also, the direction result runs as follows: (peptide MS1 2.5 uM, feature CNOT3) “Sensitive”; (peptide MS1 2.5 uM, feature loss_9p21.3) “Sensitive”; (peptide MS1 2.5 uM, feature loss_17q11.2) “Sensitive”; under setting [2], “Sensitive”; under setting [3], “Sensitive”.

For `CC(C)C[C@H](NC(=O)[C@H](CCc1ccccc1)NC(=O)CN1CCOCC1)C(=O)N[C@@H](Cc1ccccc1)C(=O)N[C@@H](CC(C)C)C(=O)[C@@]1(C)CO1` [Carfilzomib], the direction result under setting [4] is “Sensitive”; the direction result under setting [5] is on record as “Sensitive”; the direction result (peptide PUMA 1 uM, feature MYD88) was “Sensitive”; the direction entry under setting [2] was “Sensitive”; the direction entry (peptide PUMA 1 uM, feature i-CLL) is “Sensitive”; the direction entry (peptide PUMA 1 uM, feature loss_3p21.31) was “Sensitive”. Further, the direction entry under setting [3] was “Sensitive”.

As for `CCS(=O)(=O)N1CCN(c2ccc(Nc3ncc(C(N)=O)c(NC4CC4)n3)cc2)CC1` [Cerdulatinib], the drug-induced apoptotic priming result was “high priming”. Besides, the direction entry (Feature loss_13q14.13) is “Sensitive”. Besides, the direction entry (Feature loss_13q14.3) is reported as “Sensitive”. The direction result (peptide BAD 0.3 uM, feature loss_13q14.13) was “Sensitive”. The direction result (peptide BAD 0.3 uM, feature loss_13q14.3) is listed as “Sensitive”. Besides, the direction result (peptide BIM 0.01 uM, feature KMT2D) was “Sensitive”. Besides, the direction entry (peptide BIM 0.01 uM, feature loss_13q14.13) is reported as “Sensitive”. For the same molecule, the direction entry (peptide BIM 0.01 uM, feature loss_13q14.3) was “Sensitive”. The direction entry (peptide MS1 2.5 uM, feature loss_13q14.13) is listed as “Sensitive”. In addition, the direction entry (peptide PUMA 1 uM, feature loss_13q14.13) is “Sensitive”. Further, for the setting “peptide PUMA 1 uM, feature loss_13q14.3”, the direction result is given as “Sensitive”.

Take `C[C@@H](Oc1cc(-c2cnn(C3CCNCC3)c2)cnc1N)c1c(Cl)ccc(F)c1Cl` [Crizotinib]: the direction entry was “Resistant” under setting [1]; “Sensitive” (peptide BAD 0.3 uM, feature EC-u1); “Resistant” under setting [6]; “Resistant” under setting [7]; “Sensitive” (peptide BAD 0.3 uM, feature RFX7); “Resistant” under setting [8]. Moreover, the direction result is, setting by setting: (peptide BAD 0.3 uM, feature ZMYM3) “Sensitive”; under setting [9], “Resistant”; (peptide BAD 0.3 uM, feature loss_11q22.3) “Sensitive”; (peptide BAD 0.3 uM, feature n-CLL) “Sensitive”; (peptide BIM 0.01 uM, feature EC-i) “Resistant”; under setting [10], “Resistant”. For the same molecule, the direction entry is, setting by setting: (peptide BIM 0.01 uM, feature NOTCHI) “Resistant”; under setting [11], “Resistant”; (peptide BIM 0.01 uM, feature SF3B1) “Sensitive”; under setting [12], “Resistant”; under setting [13], “Resistant”; under setting [14], “Resistant”. Further, the direction result runs as follows: (peptide MS1 2.5 uM, feature RFX7) “Resistant”; under setting [15], “Resistant”; (peptide MS1 2.5 uM, feature ZMYM3) “Resistant”; under setting [16], “Resistant”; (peptide MS1 2.5 uM, feature priortrt_Post) “Resistant”; (peptide PUMA 1 uM, feature EC-i) “Resistant”. In addition, the direction result by setting is: under setting [17], “Resistant”; under setting [18], “Resistant”; under setting [19], “Resistant”; under setting [20], “Resistant”.

With `Cc1nc(Nc2ncc(C(=O)Nc3c(C)cccc3Cl)s2)cc(N2CCN(CCO)CC2)n1` [Dasatinib, dasatinib], the direction result by setting is: under setting [6], “Resistant”; under setting [7], “Resistant”; under setting [8], “Resistant”; under setting [9], “Resistant”; under setting [10], “Resistant”; under setting [21], “Resistant”. The direction entry is listed as “Resistant” under setting [11]; “Resistant” under setting [12]; “Sensitive” under setting [5]; “Resistant” (peptide MS1 2.5 uM, feature EC-i); “Resistant” under setting [13]; “Resistant” under setting [14]. In addition, the direction entry is, setting by setting: under setting [15], “Resistant”; under setting [16], “Resistant”; (peptide MS1 2.5 uM, feature tri_12) “Sensitive”; under setting [17], “Resistant”; under setting [18], “Resistant”; under setting [19], “Resistant”. In addition, the direction entry reads like this: under setting [20], “Resistant”; under setting [22], “Sensitive”.

On to `C[C@H](Nc1ncnc2[nH]cnc12)c1cc2cccc(Cl)c2c(=O)n1-c1ccccc1` [Duvelisib, duvelisib], for which the drug-induced apoptotic priming entry is given as “high priming”. Moreover, the direction entry under setting [23] is “Sensitive”. In addition, the direction result under setting [24] was “Sensitive”. Further, under setting [4], the direction result was “Sensitive”. Moreover, the direction result under setting [21] is “Resistant”. In addition, the direction result (peptide MS1 2.5 uM, feature loss_17p13.1) is recorded as “Sensitive”. Also, where the note is “peptide MS1 2.5 uM, feature loss_17q23.1”, the direction entry is recorded as “Sensitive”. Moreover, the direction result (peptide PUMA 1 uM, feature EC-m2) was “Sensitive”. Besides, the direction entry (peptide PUMA 1 uM, feature loss_17p13.1) was “Sensitive”. Further, under setting [22], the direction entry is reported as “Sensitive”.

For `c1cn2cc(-c3ccc4cn[nH]c4c3)nc(Nc3ccc(N4CCOCC4)cc3)c2n1` [Entospletinib], the direction entry reads like this: (Feature tri_12) “Sensitive”; under setting [23], “Sensitive”; under setting [24], “Sensitive”; (peptide BAD 0.3 uM, feature loss_19p13.11) “Sensitive”; (peptide BIM 0.01 uM, feature tri_12) “Sensitive”; (peptide MS1 2.5 uM, feature loss_19p13.11) “Sensitive”. The direction result (peptide PUMA 1 uM, feature loss_19p13.11) is listed as “Sensitive”.

The record behind these values is patent US20250255889A1, “METHODS FOR TREATMENT SELECTION FOR CHRONIC LYMPHOCYTIC LEUKEMIA (CLL)” (The Broad Institute, Inc., priority 2022, published 2025).
